Measured values: PMC7486940, “Pre-symptomatic Caspase-1 inhibitor delays cognitive decline in a mouse model of Alzheimer disease and aging” (Nature Communications, 2020)

Assays:
J20 mice = assay: novel object recognition (NOR), episodic memory; format: in vivo, mouse
Description: (§1) VX-765 (Adooq Bioscience, Irvine, CA, USA) was dissolved 5 mg • ml^−1 in 20% cremophor in dH2O[60] (Sigma-Aldrich, ON, Canada) and administered IPWT and J20 mice received three injections per week of either 50 mg • kg^−1 VX-765 or 20% cremophor vehicle for 4 weeks between 2 and 3 months of age. Mice were longitudinally followed starting 4 weeks after the last injection [4-week washout (WO)], then every other month at 12- and 20-week WO (6 and 8 months of age, respectively). Intermediate 8- and 16-week WO periods were also looked at with a smaller number of mice. After each WO period, animals were randomly chosen, independent of behavioural performance, for sacrifice and assigned to either histological or biochemical analysis (Fig. 2a).
(§2) Open-field and novel object recognition (NOR) were measured at all WO periods. The Barnes maze was assessed at 12- and 20-week WO. Open field: Mice were placed in an open-field chamber, composed of a plexiglass box with no ceiling and white floor, and allowed to explore for 5 min. NOR: Mice were pre-exposed to two identical objects in the open-field chamber for 5 min. Two hours after pre-exposure, mice were placed back into the chamber and exposed to one familiar object and one novel object for 5 min (test phase). Mice were exposed to a specific object only once across multiple test sessions. Barnes maze: Learning acquisition (days 1–4)—each mouse was trained to find the target and enter the escape box within 180 s. Four trials per day, ~15 min apart, were performed for 4 consecutive days. Probe (day 5)—a single, 90 s trial was performed on each mouse to measure primary latency and number of errors to reach the blocked target. Target hole location was changed between the two separate test sessions. Behavioural scoring was blinded to mouse genotype and treatment.

WT mice [1] = assay: novel object recognition (NOR), episodic memory; format: in vivo, mouse
Description: as §1, §2

WT mice [2] = assay: open field; format: in vivo, mouse; conditions: 50 mg/kg IP 3x/week for 1 month
Description: as §1, §2

all other caspases = system: all other caspases; design: method as in PMID 30254377, PMID 17289835; conditions: cited from earlier work
in vivo = conditions: female, C57BL/6J, mouse, ip, 50 mg/kg; for half-life: Half-life (t1/2) in plasma; for MRT inf: MRTinf in plasma
Description: Plasma, whole brain and CSF concentrations of VX-765 and its active metabolite, VRT-043198, were determined by LC-MS/MS at Paraza Pharma (Montreal, QC, Canada). Fourteen C57BL/6J female mice received a single IP dose of 50 mg · kg^−1 VX-765 and 2 mice per time point were euthanized at 0.25, 0.5, 1, 3, 6, 8 and 24 h post-injection. Mice were isoflurane anesthetized to collect CSF and perform a cardiac puncture followed by whole body perfusion with PBS. Plasma samples were extracted 1:1 in spiking solution and internal standard solution containing 0.1 μM glyburide in acetonitrile. Brain and CSF samples were extracted 1:1 in spiking solution and internal standard solution containing 0.2 μM labetalol in 50:50 methanol:acetonitrile. Samples were centrifuged at 4000 × g for 10 min at 4 °C, the plasma supernatant diluted 1:1 and the brain and CSF supernatant diluted 1:2 in H2O, and 5 μl was injected into a Quantis LC-MS/MS system for analysis.

CCO[C@@H]1OC(=O)C[C@@H]1NC(=O)[C@@H]1CCCN1C(=O)[C@@H](NC(=O)c1ccc(N)c(Cl)c1)C(C)(C)C [VX-765, (S)-1-((S)-2-{[1-(4-amino-3-chloro-phenyl)-methanoyl]-amino}-3,3-dimethyl-butanoyl)-pyrrolidine-2-carboxylic acid ((2R,3S)-2-ethoxy-5-oxo-tetrahydro-furan-3-yl)-amide]
delay of the onset of cognitive impairment (J20 mice; J20, 50 mg/kg IP 3x/week for 1 month, pre-symptomatic): at least 5 months
NOR discrimination index (NOR impairment) (J20 mice; J20, pre-symptomatic 50 mg/kg IP 3x/week for 1 month, 4-, 8-, 12-, 16- and 20-week WO, vs vehicle-treated J20): protected J20 mice against NOR impairment at all WO periods
percentage of NOR impaired mice (J20 mice; VX-765-treated J20, 50 mg/kg IP 3x/week for 1 month): increased consistently between 4- and 20-week WO
NOR performance over washout (J20 mice; VX-765-treated J20, 50 mg/kg IP 3x/week for 1 month, 4- vs 20-week WO): declined between 4- and 20-week WO
NOR performance (WT mice [1]; VX-765-treated WT, 6-month-old (12-week WO) vs VX-765-treated 4-month-old WT): increased
NOR performance (WT mice [1]; WT, 8-month-old (20-week WO), 50 mg/kg IP 3x/week for 1 month, vs same age vehicle-treated WT): increased
percentage of NOR impaired mice (WT mice [1]; WT, 50 mg/kg IP 3x/week for 1 month, 12- to 20-week WO): increased between 12- and 20-week WO in the vehicle-treated, but not VX-765-treated WT mice
open field activity (WT mice [2]; WT, all WO periods): had no effect on WT mice at any WO period
open field locomotor activity, time moving, thigmotaxis (WT mice [2]; between vehicle and VX-765 treatment): no differences in locomotor activity, time moving or thigmotaxis
specificity to Casp1 (all other caspases): specificity to Casp1 against all other caspases
concentration at 0.25 h (in vivo; CSF concentration, Mean): 330 nM
concentration at 0.5 h (in vivo; CSF concentration, Mean): 620 nM
concentration at 1 h (in vivo; CSF concentration, Mean): 80 nM
concentration at 3 h (in vivo; CSF concentration, Mean): 60 nM
concentration at 6 h (in vivo; CSF concentration, Mean): 60 nM
concentration at 8 h (in vivo; CSF concentration, Mean): 100 nM
concentration at 0.25 h (in vivo; CSF concentration, Mouse 1): 210 nM
concentration at 0.5 h (in vivo; CSF concentration, Mouse 1): 70 nM
concentration at 1 h (in vivo; CSF concentration, Mouse 1): 60 nM
concentration at 3 h (in vivo; CSF concentration, Mouse 1): 70 nM
concentration at 6 h (in vivo; CSF concentration, Mouse 1): 50 nM
concentration at 8 h (in vivo; CSF concentration, Mouse 1): 70 nM
concentration at 0.25 h (in vivo; CSF concentration, Mouse 2): 450 nM
concentration at 0.5 h (in vivo; CSF concentration, Mouse 2): 1170 nM
concentration at 1 h (in vivo; CSF concentration, Mouse 2): 100 nM
concentration at 3 h (in vivo; CSF concentration, Mouse 2): 40 nM
concentration at 6 h (in vivo; CSF concentration, Mouse 2): 60 nM
concentration at 8 h (in vivo; CSF concentration, Mouse 2): 130 nM
Cmax (in vivo; Cmax in CSF, Mean): 690 nM
Cmax (in vivo; Cmax in CSF, Mouse 1): 210 nM
Cmax (in vivo; Cmax in CSF, Mouse 2): 1170 nM
Cmax (in vivo; Cmax in brain, Mean): 160 nM
Cmax (in vivo; Cmax in brain, Mouse 1): 240 nM
Cmax (in vivo; Cmax in brain, Mouse 2): 90 nM
Cmax (in vivo; Cmax in plasma, Mean): 1590 nM
Cmax (in vivo; Cmax in plasma, Mouse 1): 1540 nM
Cmax (in vivo; Cmax in plasma, Mouse 2): 1630 nM
half-life (in vivo; Mean): 192 min
half-life (in vivo; Mouse 1): 193 min
half-life (in vivo; Mouse 2): 190 min
MRT inf (in vivo; Mean): 313 min
MRT inf (in vivo; Mouse 1): 288 min
MRT inf (in vivo; Mouse 2): 338 min
Tmax (in vivo; Tmax in CSF, Mean): 22.8 min
Tmax (in vivo; Tmax in CSF, Mouse 1): 15 min
Tmax (in vivo; Tmax in CSF, Mouse 2): 30 min
Tmax (in vivo; Tmax in brain, Mean): 22.8 min
Tmax (in vivo; Tmax in brain, Mouse 1): 15 min
Tmax (in vivo; Tmax in brain, Mouse 2): 30 min
Tmax (in vivo; Tmax in plasma, Mean): 45 min
Tmax (in vivo; Tmax in plasma, Mouse 1): 30 min
Tmax (in vivo; Tmax in plasma, Mouse 2): 60 min
concentration at 0.25 h (in vivo; brain concentration, Mean): 160 nM
concentration at 0.5 h (in vivo; brain concentration, Mean): 70 nM
concentration at 0.25 h (in vivo; brain concentration, Mouse 1): 240 nM
concentration at 0.5 h (in vivo; brain concentration, Mouse 1): 50 nM
concentration at 0.25 h (in vivo; brain concentration, Mouse 2): 70 nM
concentration at 0.5 h (in vivo; brain concentration, Mouse 2): 90 nM
concentration at 0.25 h (in vivo; plasma concentration, Mean): 290 nM
concentration at 0.5 h (in vivo; plasma concentration, Mean): 1010 nM
concentration at 1 h (in vivo; plasma concentration, Mean): 1250 nM
concentration at 3 h (in vivo; plasma concentration, Mean): 400 nM
concentration at 6 h (in vivo; plasma concentration, Mean): 330 nM
concentration at 8 h (in vivo; plasma concentration, Mean): 320 nM
concentration at 24 h (in vivo; plasma concentration, Mean): 10 nM
concentration at 0.25 h (in vivo; plasma concentration, Mouse 1): 310 nM
concentration at 0.5 h (in vivo; plasma concentration, Mouse 1): 1540 nM
concentration at 1 h (in vivo; plasma concentration, Mouse 1): 870 nM
concentration at 3 h (in vivo; plasma concentration, Mouse 1): 450 nM
concentration at 6 h (in vivo; plasma concentration, Mouse 1): 430 nM
concentration at 8 h (in vivo; plasma concentration, Mouse 1): 200 nM
concentration at 24 h (in vivo; plasma concentration, Mouse 1): 8 nM
concentration at 0.25 h (in vivo; plasma concentration, Mouse 2): 270 nM
concentration at 0.5 h (in vivo; plasma concentration, Mouse 2): 490 nM
concentration at 1 h (in vivo; plasma concentration, Mouse 2): 1630 nM
concentration at 3 h (in vivo; plasma concentration, Mouse 2): 350 nM
concentration at 6 h (in vivo; plasma concentration, Mouse 2): 220 nM
concentration at 8 h (in vivo; plasma concentration, Mouse 2): 450 nM
concentration at 24 h (in vivo; plasma concentration, Mouse 2): 14 nM
